Data on 75 molecules can be found in publication PMC12064818, “A general assay platform to study protein pharmacology using ligand-dependent structural dynamics” (Nature Communications, 2025).

Where only a bound is given, the exact number is not on record here.

For this experiment, the target named is T1, FLuc-C-HiBiT (Photinus pyralis, UniProt P08659).
T1 construct: firefly luciferase with C-terminal HiBiT tag, E. coli expressed
T1 sequence (P08659 whole entry, looked up): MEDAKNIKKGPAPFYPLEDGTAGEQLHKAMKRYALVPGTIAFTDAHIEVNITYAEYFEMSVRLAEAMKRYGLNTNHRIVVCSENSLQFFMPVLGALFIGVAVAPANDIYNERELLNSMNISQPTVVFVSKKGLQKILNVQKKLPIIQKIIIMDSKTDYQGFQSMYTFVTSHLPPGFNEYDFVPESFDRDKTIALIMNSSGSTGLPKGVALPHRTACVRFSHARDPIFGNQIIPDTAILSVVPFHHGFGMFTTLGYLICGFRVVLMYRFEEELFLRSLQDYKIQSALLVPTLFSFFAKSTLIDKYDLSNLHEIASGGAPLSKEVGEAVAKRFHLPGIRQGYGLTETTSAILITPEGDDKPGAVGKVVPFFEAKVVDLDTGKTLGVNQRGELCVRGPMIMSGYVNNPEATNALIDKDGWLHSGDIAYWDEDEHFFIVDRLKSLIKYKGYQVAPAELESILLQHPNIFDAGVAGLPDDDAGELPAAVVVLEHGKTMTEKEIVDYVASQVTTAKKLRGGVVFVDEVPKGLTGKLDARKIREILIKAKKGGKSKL
The experiment is described as follows: biochemical. Conditions: enzyme activity, 10 uM ATP; read-out: IC50 or SDR50 (mM) / FLuc E.
`O=C(O)c1cccc(-c2noc(-c3cccc([N+](=O)[O-])c3)n2)c1` [NCGC00253775-01]: the IC50 was 0.007 µM.

Take `COc1cccc(-c2noc(Nc3ccc(OC)c(OC)c3)n2)c1` [NCGC00422366-01]: the IC50 worked out at 3.94 µM.

On to `COc1ccc(F)cc1-c1ccc(COc2ccc3c(cnn3CCC(=O)O)c2)cc1` [NCGC00418072-01], for which the IC50 turned out to be 18 µM.

Regarding `Cc1ccc(C2=CC(c3ccccc3C)n3c(nc4ccccc43)N2)cc1` (stereo not drawn) [NCGC00140747-01], the IC50 worked out at 4.42 µM.

In the case of `O=C(O)C1CCc2nc(N3CCN(C(=O)C4CCC4)CC3)sc2C1` (stereo not drawn) [NCGC00432759-01], the IC50 stood at 8.81 µM.

As for `COc1cccc(NC(=O)CCc2nc(-c3ccc(C(C)(C)C)cc3)no2)c1` [NCGC00115609-01], the IC50 is 7 µM.

In the case of `Cc1ccc(C2Cn3nnc(C(=O)N4CCC(C(=O)NCCN5CCCC5)CC4)c3CO2)cc1` (stereo not drawn) [NCGC00449567-01], the IC50 stood at 9.89 µM.

Consider `CCN(c1ncnc2c1cnn2-c1ccc(C)cc1)C1CCCCC1` [NCGC00138994-01], for which the IC50 is 0.881 µM.

In the case of `CCc1ccc(C2=CC(c3cccc(C)c3)n3c(nc4ccccc43)N2)cc1` (stereo not drawn) [NCGC00140745-01], the IC50 was determined as 0.881 µM.

On to `Cc1ccccc1-c1noc(-c2ccc(N3CCCC3)c([N+](=O)[O-])c2)n1` [NCGC00119417-01], for which the IC50 amounted to 11.1 µM.

For `CSCC(=O)N[C@H]1CCN2C(=O)c3cc(/C=C/c4ccccc4)ccc3NC(=O)[C@H]12` [NCGC00421159-01], the IC50 amounted to 14.3 µM.

As for `CC1(NC(=O)C2CC2)CN(Cc2nc(-c3cccc(F)c3)cs2)C1` [NCGC00410350-01], the IC50 was 20.2 µM.

Regarding `CCNC(=O)N[C@@H]1C=C[C@@H](c2c(C)nn(-c3ccc(C(F)(F)F)cc3)c2C)C1` [NCGC00397974-01], the IC50 was found to be 14.3 µM.

Take `COc1ccc(-c2cc(N3CCCC(NC(=O)c4cccs4)C3)[nH]n2)cc1` (stereo not drawn) [NCGC00437586-01]: the IC50 is 9.89 µM.

Consider `CCc1cccc(NCc2ccccc2-c2nnc(-c3ccccc3Cl)o2)c1` [NCGC00107400-01], for which the IC50 was > 30 µM.

In the case of `CC[S+](=O)([O-])c1cccc(C(=O)Nc2ccc(-c3nc4ccccc4s3)c(O)c2)c1` [NCGC00134166-03], the IC50 came to 4.42 µM.

Regarding `Cc1ccc(C2Cn3nnc(C(=O)N4CCC(C(=O)NCc5ccccn5)CC4)c3CO2)cc1` (stereo not drawn) [NCGC00449551-01], the IC50 came to 11.1 µM.

On to `CN1c2cc(C(=O)Nc3ccc4c(c3)OCCO4)ccc2C(=O)N2CCCC21` (stereo not drawn) [NCGC00452151-01], for which the IC50 worked out at 7.85 µM.

Regarding `COc1cccc(-c2noc(Nc3ccc4c(c3)OCO4)n2)c1` [NCGC00422370-01], the IC50 came out at 6.24 µM.

Take `Cc1ccc(-c2cc3c(=O)n(CCNC(=O)c4ccccc4F)ccn3n2)c(C)c1` [NCGC00456982-01]: the IC50 is 7 µM.

Turning to `O=C(COC(=O)c1cc(-c2cccs2)nc2ccccc12)c1ccc(Br)cc1` [NCGC00100768-01], the IC50 was > 30 µM.

In the case of `Cc1ccc(C)c(N2CCN(C(=O)c3ccc(NC(=O)c4nsc5ccccc45)cc3)CC2)c1` [NCGC00134456-01], the IC50 amounted to 9.89 µM.

Turning to `COc1ccc(-c2nc3ccccc3s2)cc1NC(=O)COc1ccccc1C` [NCGC00103036-01], the IC50 is > 30 µM.

`NC(=O)C1CCN(c2ncnc3c2cnn3-c2cccc(Cl)c2)CC1` [NCGC00139154-01]: the IC50 was > 30 µM.

Turning to `Cc1ccc(C2Cn3nnc(C(=O)N4CCC(C(=O)Nc5ccc(F)cc5)CC4)c3CO2)cc1` (stereo not drawn) [NCGC00449591-01], the IC50 was found to be 11.1 µM.

On to `Clc1cccc(-c2nc(-c3ccccn3)no2)c1` [NCGC00035901-01], for which the IC50 amounted to 0.989 µM.

As to `CC(C)(C)C(=O)Nc1ccc(-c2nc3ccccc3s2)cc1` [NCGC00118992-01], the IC50 stood at 0.0197 µM.

Regarding `C[C@@H]1C(=O)O[C@H]2[C@H]1CC[C@@]1(C)Cc3sc(NC(=O)COCC(=O)O)nc3[C@@H](C)[C@H]21` [NCGC00391314-01], the IC50 came out at 5.7 µM.

`CN1CC(=O)N(C2CCCC2)Cc2c1ncnc2N1CCOCC1` [NCGC00480226-01]: the IC50 is > 30 µM.

In the case of `Oc1ccccc1CN1CCNc2cc(-c3ccccc3)ncc2C1` [NCGC00411063-01], the IC50 was found to be 16.1 µM.

Take `O=C1c2cnc(-c3cccc(CO)c3)nc2OCCN1c1cccc(C(F)(F)F)c1` [NCGC00413455-01]: the IC50 was 20.2 µM.

Consider `COc1ccc(-c2nc3ccccc3s2)cc1NC(=O)c1cccc(F)c1` [NCGC00141116-01], for which the IC50 is > 30 µM.

For `Cc1cccc(-c2cccc(NC(=O)C3CCCN(C(=O)CC(F)(F)F)C3)c2)c1` (stereo not drawn) [NCGC00425452-01], the IC50 was > 30 µM.

For the molecule `O=C(Nc1ccccc1-c1nc2ccccc2s1)c1ccc(F)cc1` [NCGC00102555-01], the IC50 was > 30 µM.

In the case of `Cc1ncc(C(=O)NCc2ccc3[nH]c(-c4ccccc4F)c(C)c3c2)c(C)n1` [NCGC00435925-01], the IC50 worked out at 7.85 µM.

Consider `Cc1cccc(-c2nnc(SCCC(=O)O)o2)c1` [NCGC00103138-01], for which the IC50 came out at 4.95 µM.

In the case of `CCn1cc(-c2ccc(F)cc2)cc1C(=O)O` [NCGC00432651-01], the IC50 was > 30 µM.

Consider `CCN1c2cc(C(=O)Nc3ccc(N(C)C)cc3)ccc2C(=O)N2CCCCC21` (stereo not drawn) [NCGC00452497-01], for which the IC50 came out at 12.4 µM.

With `COc1ccc(NC(=O)Cn2c(SCc3ccc(C)cc3)nc3cccnc32)cc1OC` [NCGC00123978-01], the IC50 came out at 0.7 µM.

Take `CC(C)c1nc(C2Cc3ccccc3N2C(=O)NC2CCCC2)no1` (stereo not drawn) [NCGC00471499-01]: the IC50 was 14 µM.

`Cc1ccc(-c2nnc(SCc3ccccc3)o2)cc1` [NCGC00141131-01]: the IC50 was determined as 11.1 µM.

On to `CCOc1cccc2cc(-c3nc(-c4ccccc4C)no3)c(=O)oc12` [NCGC00123322-01], for which the IC50 turned out to be 3.13 µM.

Turning to `O=C(Nc1ccccc1)c1nc2c(o1)CCN(Cc1cccc(Cl)c1)CC2` [NCGC00413390-01], the IC50 amounted to 10.1 µM.

`O=C(Nc1ncc(-c2ccccc2)c2c1OCC2)c1ccccc1` [NCGC00412770-01]: the IC50 was 18 µM.

Take `Cc1ncccc1C(=O)N1CC(Oc2ccc(-c3nc(-c4ccccc4)no3)cc2)C1` [NCGC00441179-01]: the IC50 was determined as 6.24 µM.

With `O=C1c2cnc(-c3ccccc3)nc2OCCN1CC1CC1` [NCGC00413518-01], the IC50 came to 16.1 µM.

In the case of `Clc1cccc(-n2ncc3c(N4CCC(Cc5ccccc5)CC4)ncnc32)c1` [NCGC00139124-01], the IC50 is > 30 µM.

On to `O=C1c2cnc(-c3cccc(C(F)(F)F)c3)nc2OCCN1CC1CC1` [NCGC00413514-01], for which the IC50 worked out at 9.04 µM.

As for `CSc1ccc(-c2ccc3c(c2)C(=O)N2CC[C@H](NC(=O)c4cccs4)[C@H]2C(=O)N3)cc1` [NCGC00393756-01], the IC50 came out at 12.4 µM.

For the molecule `Cc1cc(F)ccc1NC(=O)c1csc2c1CCC(C)C2` (stereo not drawn) [NCGC00112512-01], the IC50 was found to be 2.79 µM.

In the case of `CC(=O)c1cccc(-c2nc3ccccc3s2)c1` [NCGC00167620-01], the IC50 stood at 9.89 µM.

In the case of `COc1ccc(-c2noc(N3CCc4ccccc43)n2)cc1` [NCGC00422328-01], the IC50 was found to be 3.13 µM.

Take `Cc1ccc(C(=O)Nc2cccc(C(=O)O)c2)cc1[S+](=O)([O-])N1CCCC1` [NCGC00098466-01]: the IC50 was 0.0881 µM.

As for `c1nc(N2C[C@@H](c3ccc4c(c3)OCO4)[C@@H]3[C@H]2C2CCN3CC2)c2nc[nH]c2n1` [NCGC00444647-01], the IC50 is > 30 µM.

On to `Cc1ccc2nc(-c3ccc(NC(=O)c4ccc([S+](C)(=O)[O-])cc4)cc3)sc2c1` [NCGC00134160-01], for which the IC50 was > 30 µM.

As to `Cn1cc(CN2CCc3nc(C(=O)Nc4ccccc4)oc3CC2)cn1` [NCGC00413305-01], the IC50 came out at 18 µM.

As to `Cc1c(-c2ccccc2F)[nH]c2ccc(CNC(=O)C3C=CCN3)cc12` (stereo not drawn) [NCGC00438963-01], the IC50 was determined as 12.4 µM.

As to `CNc1ccc(-c2nc3ccccc3s2)cc1` [NCGC00165760-02], the IC50 came to 0.0785 µM.

In the case of `COc1cccc(CNc2nc3ccccc3c3nc(-c4cccc(C)c4)nn23)c1` [NCGC00112594-01], the IC50 was found to be 7.85 µM.

`CC1=C[C@@H](CNC(=O)c2ccncc2)[C@H](C(C)C)C[C@H]1CC(=O)N1CCOCC1` [NCGC00394503-01]: the IC50 is > 30 µM.

In the case of `O=C1C[C@H]2CC[C@@H](CN1)N2Cc1ccc(OCc2ccccc2)cc1` [NCGC00434033-01], the IC50 is 14 µM.

In the case of `COc1ccc(CN2CCNc3cc(-c4ccccc4)ncc3C2)cn1` [NCGC00411207-01], the IC50 came to 20.2 µM.

With `O=C(NCc1ccc(F)cc1)N1CC(Oc2ccc(-c3nc(-c4ccccc4)no3)cc2)C1` [NCGC00441109-01], the IC50 was > 30 µM.

As for `CC[S+](=O)([O-])c1ccccc1C(=O)Nc1ccc(-c2nc3ccccc3s2)cc1` [NCGC00134164-01], the IC50 is > 30 µM.

Consider `O=C1Nc2ccc(C(=O)c3ccco3)cc2C1=Cc1cc(Cl)c(O)c(Cl)c1` [NCGC00242150-05], for which the IC50 was determined as 11.1 µM.

As for `CNC(=O)c1cccc(-c2cnc(NC(=O)Cc3ccccc3)c3c2CCO3)c1` [NCGC00412711-01], the IC50 stood at 3.21 µM.

With `COc1cccc(F)c1-c1ccc(COc2ccc3c(cnn3CCC(=O)O)c2)cc1` [NCGC00418057-01], the IC50 was 20.2 µM.

Take `Clc1cccc(Nc2cc3c(cn2)CN(Cc2cccnc2)CCN3)c1` [NCGC00411094-01]: the IC50 was 12.8 µM.

Turning to `O=C(O)c1ccc(-c2noc(-c3ccc(F)cc3)n2)cc1` [NCGC00168098-01], the IC50 came out at 0.442 µM.

On to `Cc1ccc(-n2ncc3c(N4CCN(C)CC4)ncnc32)cc1` [NCGC00139016-01], for which the IC50 is 5.56 µM.

For the molecule `COc1ccc(C(=O)Nc2cc([S+](=O)([O-])c3ccc(Cl)cc3)c(O)c(C)c2C)cc1` [NCGC00102574-01], the IC50 was > 30 µM.

`COc1ccc(-c2ncc3c(n2)OCCN(C)C3=O)cc1F` [NCGC00413447-01]: the IC50 came to 18 µM.

For the molecule `NC(=O)c1cccc(-c2cc3c(cn2)CN(Cc2ccccc2)CCN3)c1` [NCGC00411232-01], the IC50 amounted to 20.2 µM.

Regarding `c1ccc(CCCc2noc(-c3ccc(NCc4ccccn4)nc3)n2)cc1` [NCGC00440648-01], the IC50 was > 30 µM.

Turning to `CN(Cc1ccccc1)C(=O)[C@H]1C[C@@H](O)[C@H](O)[C@@H]2N=C(Nc3ccc(-n4cccn4)cc3)S[C@@H]21` [NCGC00401585-01], the IC50 was determined as 11.1 µM.
